In US20240252527A9, “NUCLEOSIDE DRUGS FOR THE TREATMENT OR PREVENTION OF CORONAVIRUS INFECTION AND THEIR USES” (Miracure Biotechnology Limited, priority 2022, published 2024):
Like-named read-outs stand apart in the source and are kept apart here.

Tests used:
[1] = test system: 229E; assay: 229E MRC5 CPE assay (cytopathic experiment); assay type: cell-based, coronavirus 229E (HCoV-229E)
[2] = test system: OC43; assay: OC43 Huh7 CPE assay (cytopathic experiment); assay type: cell-based, coronavirus OC43 (HCoV-OC43); details: for EC50: read-out: OC43 Huh7 CPE assay (μM) EC50; for EC90: read-out: OC43 Huh7 CPE assay (μM) EC90
In short: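 Cells seeded overnight, then two-fold diluted compound added with virus; viability read by CellTiter-Glo after 3 days (229E, MRC5 cells) or 7 days (OC43, Huh7 cells). EC50/EC90 from % inhibition of virus-induced CPE; CC50 from parallel uninfected cytotoxicity runs, by nonlinear fitting.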

[3] = Human coronavirus 229E, MRC5, 72 h; read-out: 229E MRC5 CPE assay (μM) EC50
[4] = Human coronavirus 229E, MRC5, 72 h; read-out: 229E MRC5 CPE assay (μM) EC90
[5] = Betacoronavirus 1, OC43, Huh-7, 168 h
[6] = Betacoronavirus 1, Huh-7, 168 h, Huh7 cells, OC43 virus, 7 days, Cell Titer Glo
[7] = Human coronavirus 229E, MRC5, 72 h, read-out: 229E MRC5 CPE assay (μM) EC50
[8] = Human coronavirus 229E, MRC5, 72 h, read-out: 229E MRC5 CPE assay (μM) EC90

Structure (SMILES) | EC50 [1, 3] [µM] | EC90 [1, 4] [µM] | EC50 [2, 5] [µM] | EC90 [2, 5] [µM] | EC50 [2, 6] [µM] | EC90 [2, 6] [µM] | EC50 [1, 7] [µM] | EC90 [1, 8] [µM]
CC(C)(C)C(=O)OCO[P@](=O)(OC[C@H]1O[C@@](C#N)(c2ccc3c(N)ncnn23)[C@H](O)[C@@H]1O)Oc1cccc2ccccc12 [Compound 217] | > 0.5 | > 0.5 | > 0.5 | > 0.5 |  |  |  | 
CCC(CC)COC(=O)[C@H](C)N[P@@](=O)(OC[C@H]1O[C@@](C#N)(c2ccc3c(N)ncnn23)[C@H](O)[C@@H]1O)Oc1ccc(C[C@H](NC(=O)OCc2ccccc2)C(=O)OC2CCCC2)cc1 [Compound 218] | > 0.5 | > 0.5 |  |  | > 0.5 | > 0.5 |  | 
CCC(CC)COC(=O)[C@H](C)N[P@](=O)(OC[C@H]1O[C@@](C#N)(c2ccc3c(N)ncnn23)[C@H](O)[C@@H]1O)Oc1ccc(C[C@H](NC(=O)OCc2ccccc2)C(=O)OC2CCCC2)cc1 [Compound 219] | > 0.5 | > 0.5 |  |  | > 0.5 | > 0.5 |  | 
N#C[C@@]1(c2ccc3c(N)ncnn23)O[C@@H]2CO[P@@](=O)(Oc3ccccc3)O[C@H]2[C@H]1O [Compound 220] | > 0.5 | > 0.5 | > 0.5 | > 0.5 |  |  |  | 
N#C[C@@]1(c2ccc3c(N)ncnn23)O[C@@H]2CO[P@](=O)(Oc3ccccc3)O[C@H]2[C@H]1O [Compound 221] | > 0.5 | > 0.5 | > 0.5 | > 0.5 |  |  |  | 
CCCC(CCC)C(=O)OCO[P@@](=O)(OC[C@H]1O[C@@](C#N)(c2ccc3c(N)ncnn23)[C@H](O)[C@@H]1O)Oc1ccccc1 [Compound 222] | 0.1 to 0.5 | > 0.5 | > 0.5 | > 0.5 |  |  |  | 
CCCC(CCC)C(=O)OCO[P@](=O)(OC[C@H]1O[C@@](C#N)(c2ccc3c(N)ncnn23)[C@H](O)[C@@H]1O)Oc1ccccc1 [Compound 223] | 0.1 to 0.5 | > 0.5 | > 0.5 | > 0.5 |  |  |  | 
CCCC(CCC)C(=O)OCO[P@@](=O)(OC[C@H]1O[C@@](C#N)(c2ccc3c(N)ncnn23)[C@H](O)[C@@H]1O)Oc1cccc2ccccc12 [Compound 224] | > 0.5 | > 0.5 | > 0.5 | > 0.5 |  |  |  | 
CCCC(CCC)C(=O)OCO[P@](=O)(OC[C@H]1O[C@@](C#N)(c2ccc3c(N)ncnn23)[C@H](O)[C@@H]1O)Oc1cccc2ccccc12 [Compound 225] | > 0.5 | > 0.5 | > 0.5 | > 0.5 |  |  |  | 
CCCC(CCC)C(=O)OCO[P@](=O)(OC[C@H]1O[C@@](C#N)(c2ccc3c(N)ncnn23)[C@H](O)[C@@H]1O)Oc1ccc(C[C@H](NC(=O)OCc2ccccc2)C(=O)OC2CCCC2)cc1 [Compound 226] | > 0.5 | > 0.5 | > 0.5 | > 0.5 |  |  |  | 
CCCC(CCC)C(=O)OCO[P@@](=O)(OC[C@H]1O[C@@](C#N)(c2ccc3c(N)ncnn23)[C@H](O)[C@@H]1O)Oc1ccc(C[C@H](NC(=O)OCc2ccccc2)C(=O)OC2CCCC2)cc1 [Compound 227] | > 0.5 | > 0.5 | > 0.5 | > 0.5 |  |  |  | 
N#C[C@@]1(c2ccc3c(N)ncnn23)O[C@@H]2CO[P@](=O)(OCOC(=O)Oc3ccccc3)O[C@H]2[C@H]1O [Compound 228] |  |  | > 0.5 | > 0.5 |  |  | > 0.5 | > 0.5
N#C[C@@]1(c2ccc3c(N)ncnn23)O[C@@H]2CO[P@@](=O)(OCOC(=O)Oc3ccccc3)O[C@H]2[C@H]1O [Compound 229] |  |  | > 0.5 | > 0.5 |  |  | > 0.5 | > 0.5
CCO[P@@]1(=O)OC[C@H]2O[C@@](C#N)(c3ccc4c(N)ncnn34)[C@H](O)[C@@H]2O1 [Compound 230] | > 0.5 | > 0.5 |  |  | > 0.5 | > 0.5 |  | 
CCO[P@]1(=O)OC[C@H]2O[C@@](C#N)(c3ccc4c(N)ncnn34)[C@H](O)[C@@H]2O1 [Compound 231] | > 0.5 | > 0.5 |  |  | > 0.5 | > 0.5 |  | 
[2H]c1cc([C@]2(C#N)O[C@@H]3CO[P@](=O)(OCC)O[C@H]3[C@H]2O)n2ncnc(N)c12 [Compound 232] | > 0.5 | > 0.5 |  |  | > 0.5 | > 0.5 |  | 
[2H]c1cc([C@]2(C#N)O[C@@H]3CO[P@@](=O)(OCC)O[C@H]3[C@H]2O)n2ncnc(N)c12 [Compound 233] | > 0.5 | > 0.5 |  |  | > 0.5 | > 0.5 |  | 
CC(C)(C)C(=O)SCCO[P@@]1(=O)OC[C@H]2O[C@@](C#N)(c3ccc4c(N)ncnn34)[C@H](O)[C@@H]2O1 [Compound 236] |  |  | < 0.1 | < 0.1 |  |  | < 0.1 | < 0.1
[2H]c1cc([C@]2(C#N)O[C@@H]3CO[P@](=O)(OCCSC(=O)C(C)(C)C)O[C@H]3[C@H]2O)n2ncnc(N)c12 [Compound 238] |  |  | < 0.1 | < 0.1 |  |  | < 0.1 | < 0.1
[2H]c1cc([C@]2(C#N)O[C@@H]3CO[P@@](=O)(OCCSC(=O)C(C)(C)C)O[C@H]3[C@H]2O)n2ncnc(N)c12 [Compound 239] |  |  | < 0.1 | 0.1 to 0.5 |  |  | < 0.1 | < 0.1
N#C[C@@]1(c2ccc3c(N)ncnn23)O[C@@H]2COP(=O)(O)O[C@H]2[C@H]1OC(=O)CCCc1ccccc1 [Compound 260] |  |  | > 0.5 | > 0.5 |  |  | 0.1 to 0.5 | 0.1 to 0.5
N#C[C@@]1(c2ccc3c(N)ncnn23)O[C@@H]2CO[P@](=O)(OCOC(=O)C3CCCC3)O[C@H]2[C@H]1O [Compound 261] |  |  | > 0.5 | > 0.5 |  |  | 0.1 to 0.5 | > 0.5
N#C[C@@]1(c2ccc3c(N)ncnn23)O[C@@H]2CO[P@@](=O)(OCOC(=O)C3CCCC3)O[C@H]2[C@H]1O [Compound 262] |  |  | > 0.5 | > 0.5 |  |  | 0.1 to 0.5 | > 0.5
N#C[C@@]1(c2ccc3c(N)ncnn23)O[C@@H]2CO[P@](=O)(OCOC(=O)CCCc3ccccc3)O[C@H]2[C@H]1O [Compound 263] |  |  | 0.1 to 0.5 | > 0.5 |  |  | < 0.1 | < 0.1
N#C[C@@]1(c2ccc3c(N)ncnn23)O[C@@H]2CO[P@@](=O)(OCOC(=O)CCCc3ccccc3)O[C@H]2[C@H]1O [Compound 264] |  |  | > 0.5 | > 0.5 |  |  | < 0.1 | 0.1 to 0.5
N#C[C@@]1(c2ccc3c(N)ncnn23)O[C@H](COP(=O)(OCOC(=O)CCCc2ccccc2)OCOC(=O)CCCc2ccccc2)[C@@H](O)[C@H]1O [Compound 266] |  |  | > 0.5 | > 0.5 |  |  | > 0.5 | > 0.5
CC(C)OC(=O)C(C)(C)N[P@@](=O)(OCOC(=O)C1CCCC1)OC[C@H]1O[C@@](C#N)(c2ccc3c(N)ncnn23)[C@H](O)[C@@H]1O [Compound 267] |  |  | > 0.5 | > 0.5 |  |  | > 0.5 | > 0.5
CC(C)OC(=O)C(C)(C)N[P@](=O)(OCOC(=O)C1CCCC1)OC[C@H]1O[C@@](C#N)(c2ccc3c(N)ncnn23)[C@H](O)[C@@H]1O [Compound 268] |  |  | > 0.5 | > 0.5 |  |  | > 0.5 | > 0.5
CC(C)OC(=O)C(C)(C)N[P@@](=O)(OCOC(=O)CCCc1ccccc1)OC[C@H]1O[C@@](C#N)(c2ccc3c(N)ncnn23)[C@H](O)[C@@H]1O [Compound 269] |  |  | > 0.5 | > 0.5 |  |  | > 0.5 | > 0.5
CC(C)OC(=O)C(C)(C)N[P@](=O)(OCOC(=O)CCCc1ccccc1)OC[C@H]1O[C@@](C#N)(c2ccc3c(N)ncnn23)[C@H](O)[C@@H]1O [Compound 270] |  |  | > 0.5 | > 0.5 |  |  | > 0.5 | > 0.5
